Experimental data reported in PubChem BioAssay AID328 (DTP/NCI, 2004).
Several values for one entry are separate records, joined by “and”; a condition that tells them apart may be missing. Identical values can stand only once. Toxic doses and inconclusive results are not listed. Rule for the calls: active = survival T/C of 150% or more; inactive = T/C below 125% in these data.

Test system: BDF1 mice, P388 leukemia ip, median survival T/C
Assay: NCI In Vivo Anticancer Drug Screen. Data for tumor model P388 Leukemia (intraperitoneal) in B6D2F1 (BDF1) mice
Conditions: endpoint: median survival time, higher = longer survival
Procedure, shortened: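 Reported as T/C, where T is the survival measurement in dosed animals and C the same measurement in vehicle controls.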

[1] = dose: 25.0 mg/kg/injection, schedule: Q01DX009 (ip), vehicle: saline with Tween-80
[2] = dose: 100.0 mg/kg/injection, schedule: Q04DX003 (ip), vehicle: Klucel (hydroxypropylcellulose) (HPC)
[3] = dose: 200.0 mg/kg/injection, schedule: Q04DX003 (ip), vehicle: Klucel (hydroxypropylcellulose) (HPC)
[4] = dose: 50.0 mg/kg/injection, schedule: Q01DX009 (ip), vehicle: saline with Tween-80
[5] = dose: 100.0 mg/kg/injection, schedule: Q01DX009 (ip), vehicle: saline with Tween-80
[6] = dose: 200.0 mg/kg/injection, schedule: Q01DX009 (ip), vehicle: saline with Tween-80
[7] = dose: 400.0 mg/kg/injection, schedule: Q01DX009 (ip), vehicle: saline with Tween-80
[8] = dose: 25.0 mg/kg/injection, schedule: Q04DX003 (ip), vehicle: saline
[9] = dose: 50.0 mg/kg/injection, schedule: Q04DX003 (ip), vehicle: saline
[10] = dose: 100.0 mg/kg/injection, schedule: Q04DX003 (ip), vehicle: saline
[11] = dose: 200.0 mg/kg/injection, schedule: Q04DX003 (ip), vehicle: saline
[12] = dose: 300.0 mg/kg/injection, schedule: Q04DX003 (ip), vehicle: saline
[13] = dose: 100.0 mg/kg/injection, schedule: Q04DX003 (ip), vehicle: saline with Tween-80
[14] = dose: 200.0 mg/kg/injection, schedule: Q04DX003 (ip), vehicle: saline with Tween-80
[15] = dose: 400.0 mg/kg/injection, schedule: Q04DX003 (ip), vehicle: saline with Tween-80

Measured: T/C

CC(=O)CC(C)=O.CC(=O)CC(C)=O.[Co]
inactive: dose: 6.25 mg/kg/injection, schedule: Q01DX009 (ip), vehicle: saline with Tween-80 96 % of control | dose: 6.25 mg/kg/injection, schedule: Q04DX003 (ip), vehicle: saline with Tween-80 88 % of control | dose: 12.5 mg/kg/injection, schedule: Q01DX009 (ip), vehicle: saline with Tween-80 112 % of control | dose: 12.5 mg/kg/injection, schedule: Q04DX003 (ip), vehicle: saline with Tween-80 92 % of control | [1] 120 % of control | dose: 25.0 mg/kg/injection, schedule: Q04DX003 (ip), vehicle: saline with Tween-80 92 % of control

C=C(C)Cc1cnc(SCc2ccccc2)[nH]c1=O
inactive: [2] 104 % of control | [3] 109 % of control | dose: 400.0 mg/kg/injection, schedule: Q04DX003 (ip), vehicle: Klucel (hydroxypropylcellulose) (HPC) 113 % of control

Cc1cnc2c(N)[nH]nc2n1
inactive: dose: 50.0 mg/kg/injection, schedule: Q04DX003 (ip), vehicle: Klucel (hydroxypropylcellulose) (HPC) 86 % of control | [2] 109 % of control | [3] 100 % of control

CCOC(=O)C(OCc1ccccc1)(C(=O)O)C(C)C (centres undefined)
inactive: [1] 95 % of control | [4] 90 % of control | [5] 109 % of control | [6] 100 % of control | [7] 104 % of control

c1ccc(Nc2ncc3cnccn23)cc1
inactive: dose: 12.5 mg/kg/injection, schedule: Q04DX003 (ip), vehicle: saline 95 % of control | [8] 105 % of control | [9] 92 % of control | [10] 103 % of control | [11] 97 % of control and 101 % of control | [12] 115 % of control

Cc1ccc(NS(=O)(=O)c2ccccc2)nc1
inactive: [13] 112 % of control | [14] 116 % of control | [15] 96 % of control

Cc1cc(C)nc(NNc2nc(C)cc(C)n2)n1
inactive: [5] 92 % of control | [13] 91 % of control | [6] 103 % of control | [14] 95 % of control | [7] 89 % of control | [15] 95 % of control

CN(C)c1ccc(/C=C/c2ccnc3ccccc23)cc1
inactive: dose: 5.0 mg/kg/injection, schedule: Q01DX010 (ip), vehicle: saline 95 % of control and 100 % of control | dose: 9.0 mg/kg/injection, schedule: Q01DX010 (ip), vehicle: saline 100 % of control | dose: 10.0 mg/kg/injection, schedule: Q01DX010 (ip), vehicle: saline 95 % of control and 100 % of control | dose: 18.0 mg/kg/injection, schedule: Q01DX010 (ip), vehicle: saline 109 % of control | dose: 20.0 mg/kg/injection, schedule: Q01DX010 (ip), vehicle: saline 90 % of control and 100 % of control | dose: 35.0 mg/kg/injection, schedule: Q01DX010 (ip), vehicle: saline 109 % of control | dose: 40.0 mg/kg/injection, schedule: Q01DX010 (ip), vehicle: saline 100 % of control

C[C@@H]1C[C@@]2(C)[C@@H](CC[C@@H]3[C@@H]2CC[C@]2(C)[C@@H](O)CC[C@@H]32)CC1=O
inactive: dose: 6.25 mg/kg/injection, schedule: Q01DX009 (ip), vehicle: Klucel (hydroxypropylcellulose) (HPC) 109 % of control | dose: 12.5 mg/kg/injection, schedule: Q01DX009 (ip), vehicle: Klucel (hydroxypropylcellulose) (HPC) 109 % of control | dose: 25.0 mg/kg/injection, schedule: Q01DX009 (ip), vehicle: Klucel (hydroxypropylcellulose) (HPC) 109 % of control

C1CNCOC1
inactive: [8] 105 % of control | [9] 119 % of control

C[C@]12CC[C@H]3[C@@H](CC[C@@H]4C[C@@H](O)CC[C@@]43C=O)[C@]13O[C@@H]3CC2c1ccc(=O)oc1 (some centres undefined)
inactive: dose: 0.25 mg/kg/injection, schedule: Q01DX009 (ip), vehicle: Klucel (hydroxypropylcellulose) (HPC) 100 % of control | dose: 0.5 mg/kg/injection, schedule: Q01DX009 (ip), vehicle: Klucel (hydroxypropylcellulose) (HPC) 98 % of control | dose: 1.0 mg/kg/injection, schedule: Q01DX009 (ip), vehicle: Klucel (hydroxypropylcellulose) (HPC) 98 % of control | dose: 2.0 mg/kg/injection, schedule: Q01DX009 (ip), vehicle: Klucel (hydroxypropylcellulose) (HPC) 100 % of control

OCC1C2CCC(C2)C1CO (centres undefined)
inactive: dose: 12.5 mg/kg/injection, schedule: Q01DX009 (ip), vehicle: saline 105 % of control | dose: 25.0 mg/kg/injection, schedule: Q01DX009 (ip), vehicle: saline 110 % of control | dose: 50.0 mg/kg/injection, schedule: Q01DX009 (ip), vehicle: saline 115 % of control | dose: 75.0 mg/kg/injection, schedule: Q01DX009 (ip), vehicle: saline 115 % of control | dose: 115.0 mg/kg/injection, schedule: Q01DX009 (ip), vehicle: saline 95 % of control

CC(NC(=O)OCc1ccccc1)C(=O)NC(CC(=O)O)C(=O)O (centres undefined)
inactive: [8] 100 % of control | [9] 100 % of control | [10] 110 % of control

Clc1ccc2c(c1)Cc1cc(N=Cc3ccccc3Cl)ccc1-2
inactive: dose: 42.5 mg/kg/injection, schedule: Q01DX001 (ip), vehicle: other 86 % of control | dose: 85.0 mg/kg/injection, schedule: Q01DX001 (ip), vehicle: other 95 % of control | dose: 170.0 mg/kg/injection, schedule: Q01DX001 (ip), vehicle: other 100 % of control | dose: 170.0 mg/kg/injection, schedule: Q01DX001 (ip), vehicle: saline with Tween-80 100 % of control

CCOC(=O)C(=O)NNc1cccc(Cl)n1
inactive: dose: 100.0 mg/kg/injection, schedule: Q01DX001 (ip), vehicle: saline with Tween-80 94 % of control | dose: 200.0 mg/kg/injection, schedule: Q01DX001 (ip), vehicle: saline with Tween-80 86 % of control | dose: 400.0 mg/kg/injection, schedule: Q01DX001 (ip), vehicle: saline with Tween-80 112 % of control

N=C1CCCC1C(=S)SC(CC(N)=O)C(=O)O (centres undefined)
inactive: [4] 108 % of control | [5] 112 % of control | [6] 112 % of control

FC(F)(F)c1cc(NC(=S)N2c3ccccc3-n3cccc3C2c2cccnc2)cc(C(F)(F)F)c1 (centres undefined)
inactive: dose: 50.0 mg/kg/injection, schedule: Q01DX009 (ip), vehicle: Klucel (hydroxypropylcellulose) (HPC) 97 % of control | dose: 100.0 mg/kg/injection, schedule: Q01DX009 (ip), vehicle: Klucel (hydroxypropylcellulose) (HPC) 89 % of control | dose: 200.0 mg/kg/injection, schedule: Q01DX009 (ip), vehicle: Klucel (hydroxypropylcellulose) (HPC) 91 % of control

O=C1c2ccccc2CCCC12OC2c1ccccc1 (centres undefined)
inactive: dose: 75.0 mg/kg/injection, schedule: Q04DX003 (ip), vehicle: Klucel (hydroxypropylcellulose) (HPC) 95 % of control | dose: 150.0 mg/kg/injection, schedule: Q04DX003 (ip), vehicle: Klucel (hydroxypropylcellulose) (HPC) 104 % of control | dose: 300.0 mg/kg/injection, schedule: Q04DX003 (ip), vehicle: Klucel (hydroxypropylcellulose) (HPC) 90 % of control

O=C(O)C1OC(n2cc(F)c(=O)[nH]c2=O)CC1O (centres undefined)
inactive: [9] 108 % of control | [10] 116 % of control | [11] 106 % of control | [12] 108 % of control

CCCCCCCCCCCCCCCCOc1ccccc1CNc1cc(C(F)(F)F)ccc1Cl
inactive: dose: 100.0 mg/kg/injection, schedule: Q01DX009 (ip), vehicle: other 90 % of control | dose: 200.0 mg/kg/injection, schedule: Q01DX009 (ip), vehicle: other 100 % of control | dose: 400.0 mg/kg/injection, schedule: Q01DX009 (ip), vehicle: other 105 % of control
